Experimental data published in ChEMBL document CHEMBL3045941, “-Methyl as a bioisostere for the oxygen link between the aromatic rings of aryloxyphenoxypropionate herbicides” (Bioorg Med Chem Lett, 1997).
The source made the active and inactive calls. No cut-off for these calls is given here.

Key:
Echinochloa crus-galli [1] = test: Post-emergent herbicidal activity against Echinochloa crus-galli (barnyard grass) at <2 g/ha measured after 13 days under green house conditions; assay type: functional, organism-based
Echinochloa crus-galli [2] = test: Post-emergent herbicidal activity against Echinochloa crus-galli (barnyard grass) at 500 g/ha measured after 13 days under green house conditions; assay type: functional
Setaria viridis [3] = test: Post-emergent herbicidal activity against Setaria viridis (green foxtail) at <2 g/ha measured after 13 days under green house conditions; assay type: functional, organism-based
Sorghum halepense [4] = test: Post-emergent herbicidal activity against Sorghum halepense (Johnson grass) at 500 g/ha measured after 13 days under green house conditions; assay type: functional
Avena fatua [5] = test: Post-emergent herbicidal activity against Avena fatua at <2 g/ha measured after 13 days under green house conditions; assay type: functional, organism-based
Avena fatua [6] = test: Post-emergent herbicidal activity against Avena fatua at 500 g/ha measured after 13 days under green house conditions; assay type: functional
Triticum aestivum [7] = test: Phytotoxicity against Triticum aestivum (wheat) at two to four-leaf growth stage at <2 g/ha measured after 13 days under green house conditions; assay type: organism-based; conditions: in vivo, 312 h
Triticum aestivum [8] = test: Phytotoxicity against Triticum aestivum (wheat) plant at two to four-leaf growth stage at 500 g/ha measured after 13 days under green house conditions; assay type: organism-based; conditions: in vivo, 312 h
Oryza sativa [9] = test: Phytotoxicity against Oryza sativa (rice) plant at two to four-leaf growth stage at <2 g/ha measured after 13 days under green house conditions; assay type: organism-based; conditions: in vivo, 312 h
Sorghum halepense [10] = test: Post-emergent herbicidal activity against Sorghum halepense (Johnson grass) at <2 g/ha measured after 13 days under green house conditions; assay type: functional, organism-based
Setaria viridis [11] = test: Post-emergent herbicidal activity against Setaria viridis (green foxtail) at 500 g/ha measured after 13 days under green house conditions; assay type: functional
Oryza sativa [12] = test: Phytotoxicity against Oryza sativa (rice) plant at two to four-leaf growth stage at 500 g/ha measured after 13 days under green house conditions; assay type: organism-based; conditions: in vivo, 312 h
Zea mays [13] = test: Phytotoxicity against Zea mays (maize) plant at two to four-leaf growth stage at <2 g/ha measured after 13 days under green house conditions; assay type: organism-based; conditions: in vivo, 312 h
Zea mays [14] = test: Phytotoxicity against Zea mays (maize) plant at two to four-leaf growth stage at 500 g/ha measured after 13 days under green house conditions; assay type: organism-based; conditions: in vivo, 312 h

Compound: CCOC(=O)C(C)Oc1ccc(N(C)c2cnc3cc(Cl)ccc3n2)cc1 (racemic)
- Activity (Echinochloa crus-galli [1]): inactive
- Activity (Echinochloa crus-galli [2]): 85%
- Activity (Setaria viridis [3]): inactive
- Activity (Sorghum halepense [4]): 85%
- Activity (Avena fatua [5]): inactive
- Activity (Avena fatua [6]): 0%
- Activity (Triticum aestivum [7]): Non-toxic
- Activity (Triticum aestivum [8]): 85%
- Activity (Oryza sativa [9]): Non-toxic
- Activity (Sorghum halepense [10]): inactive
- Activity (Setaria viridis [11]): 85%
- Activity (Oryza sativa [12]): 0%
- Activity (Zea mays [13]): Non-toxic
- Activity (Zea mays [14]): 50%

Compound: COC(=O)C(C)Oc1ccc(Oc2ncc3cc(Cl)ccc3n2)cc1 (racemic)
- Activity (Echinochloa crus-galli [1]): inactive
- Activity (Echinochloa crus-galli [2]): 85%
- Activity (Setaria viridis [3]): inactive
- Activity (Sorghum halepense [4]): 85%
- Activity (Avena fatua [5]): inactive
- Activity (Avena fatua [6]): 0%
- Activity (Triticum aestivum [7]): Non-toxic
- Activity (Triticum aestivum [8]): 0%
- Activity (Oryza sativa [9]): Non-toxic
- Activity (Sorghum halepense [10]): inactive
- Activity (Setaria viridis [11]): 65%
- Activity (Oryza sativa [12]): 0%
- Activity (Zea mays [13]): Non-toxic
- Activity (Zea mays [14]): 15%

Compound: CCOC(=O)C(C)Oc1ccc(Oc2cc3ccc(Cl)cc3cn2)cc1 (racemic)
- Activity (Echinochloa crus-galli [1]): inactive
- Activity (Echinochloa crus-galli [2]): 100%
- Activity (Setaria viridis [3]): inactive
- Activity (Sorghum halepense [4]): 100%
- Activity (Avena fatua [5]): inactive
- Activity (Avena fatua [6]): 85%
- Activity (Triticum aestivum [7]): Non-toxic
- Activity (Triticum aestivum [8]): 85%
- Activity (Oryza sativa [9]): Non-toxic
- Activity (Sorghum halepense [10]): inactive
- Activity (Setaria viridis [11]): 85%
- Activity (Oryza sativa [12]): 70%
- Activity (Zea mays [13]): Non-toxic
- Activity (Zea mays [14]): 70%

Compound: COC(=O)C(C)Oc1ccc(N(C)c2ccc(Cl)cc2Cl)cc1 (racemic)
- Activity (Echinochloa crus-galli [1]): inactive
- Activity (Echinochloa crus-galli [2]): 85%
- Activity (Setaria viridis [3]): inactive
- Activity (Sorghum halepense [4]): 85%
- Activity (Avena fatua [5]): inactive
- Activity (Avena fatua [6]): 0%
- Activity (Triticum aestivum [7]): Non-toxic
- Activity (Triticum aestivum [8]): 70%
- Activity (Oryza sativa [9]): Non-toxic
- Activity (Sorghum halepense [10]): inactive
- Activity (Setaria viridis [11]): 85%
- Activity (Oryza sativa [12]): 0%
- Activity (Zea mays [13]): Non-toxic
- Activity (Zea mays [14]): 30%

Compound: COC(=O)C(C)Oc1ccc(N(C)c2ccc3cc(Cl)ccc3n2)cc1 (racemic)
- Activity (Echinochloa crus-galli [1]): inactive
- Activity (Echinochloa crus-galli [2]): 100%
- Activity (Setaria viridis [3]): inactive
- Activity (Sorghum halepense [4]): 100%
- Activity (Avena fatua [5]): inactive
- Activity (Avena fatua [6]): 70%
- Activity (Triticum aestivum [7]): Non-toxic
- Activity (Triticum aestivum [8]): 85%
- Activity (Oryza sativa [9]): Non-toxic
- Activity (Sorghum halepense [10]): inactive
- Activity (Setaria viridis [11]): 85%
- Activity (Oryza sativa [12]): 30%
- Activity (Zea mays [13]): Non-toxic
- Activity (Zea mays [14]): 100%

Compound: COC(=O)C(C)Oc1ccc(Oc2nnc3cc(Cl)ccc3n2)cc1 (racemic)
- Activity (Echinochloa crus-galli [1]): inactive
- Activity (Echinochloa crus-galli [2]): 50%
- Activity (Setaria viridis [3]): inactive
- Activity (Sorghum halepense [4]): 30%
- Activity (Avena fatua [5]): inactive
- Activity (Avena fatua [6]): 0%
- Activity (Triticum aestivum [7]): Non-toxic
- Activity (Triticum aestivum [8]): 0%
- Activity (Oryza sativa [9]): Non-toxic
- Activity (Sorghum halepense [10]): inactive
- Activity (Setaria viridis [11]): 50%
- Activity (Oryza sativa [12]): 0%
- Activity (Zea mays [13]): Non-toxic
- Activity (Zea mays [14]): 0%

Compound: COC(=O)C(C)Oc1ccc(N(C)c2ccc(C(F)(F)F)cn2)cc1 (racemic)
- Activity (Echinochloa crus-galli [1]): inactive
- Activity (Echinochloa crus-galli [2]): 50%
- Activity (Setaria viridis [3]): inactive
- Activity (Sorghum halepense [4]): 0%
- Activity (Avena fatua [5]): inactive
- Activity (Avena fatua [6]): 0%
- Activity (Triticum aestivum [7]): Non-toxic
- Activity (Triticum aestivum [8]): 30%
- Activity (Oryza sativa [9]): Non-toxic
- Activity (Sorghum halepense [10]): inactive
- Activity (Setaria viridis [11]): 0%
- Activity (Oryza sativa [12]): 0%
- Activity (Zea mays [13]): Non-toxic
- Activity (Zea mays [14]): 30%

Compound: COC(=O)C(C)Oc1ccc(Oc2ccc3cc(Cl)ccc3n2)cc1 (racemic)
- Activity (Echinochloa crus-galli [1]): inactive
- Activity (Echinochloa crus-galli [2]): 100%
- Activity (Setaria viridis [3]): inactive
- Activity (Sorghum halepense [4]): 100%
- Activity (Avena fatua [5]): inactive
- Activity (Avena fatua [6]): 85%
- Activity (Triticum aestivum [7]): Non-toxic
- Activity (Triticum aestivum [8]): 85%
- Activity (Oryza sativa [9]): Non-toxic
- Activity (Sorghum halepense [10]): inactive
- Activity (Setaria viridis [11]): 100%
- Activity (Oryza sativa [12]): 85%
- Activity (Zea mays [13]): Non-toxic
- Activity (Zea mays [14]): 100%
